The target of series [1] is Cyclin-dependent kinase 5/CDK5 activator 1 (Homo sapiens, UniProt Q00535). The series can be described thus: biochemical. The class given is cell-based, Sf9.
The target in series [2] is Casein kinase I isoform epsilon (Homo sapiens, UniProt P49674). The series can be described thus: biochemical. In kind it is cell-based, Sf9.
The target of series [3] is T1, Dual specificity protein kinase CLK1 (Homo sapiens, UniProt P49759). The series can be described thus: biochemical. The class given is cell-based, Sf9.
For series [4], the target named is Dual specificity protein kinase CLK3 (Homo sapiens, UniProt P49761). The series can be described thus: biochemical. In kind it is cell-based, Sf9.
For series [5], the target named is T2, Dual specificity tyrosine-phosphorylation-regulated kinase 2 (Homo sapiens, UniProt Q92630).
T2 sequence (Q92630 whole entry): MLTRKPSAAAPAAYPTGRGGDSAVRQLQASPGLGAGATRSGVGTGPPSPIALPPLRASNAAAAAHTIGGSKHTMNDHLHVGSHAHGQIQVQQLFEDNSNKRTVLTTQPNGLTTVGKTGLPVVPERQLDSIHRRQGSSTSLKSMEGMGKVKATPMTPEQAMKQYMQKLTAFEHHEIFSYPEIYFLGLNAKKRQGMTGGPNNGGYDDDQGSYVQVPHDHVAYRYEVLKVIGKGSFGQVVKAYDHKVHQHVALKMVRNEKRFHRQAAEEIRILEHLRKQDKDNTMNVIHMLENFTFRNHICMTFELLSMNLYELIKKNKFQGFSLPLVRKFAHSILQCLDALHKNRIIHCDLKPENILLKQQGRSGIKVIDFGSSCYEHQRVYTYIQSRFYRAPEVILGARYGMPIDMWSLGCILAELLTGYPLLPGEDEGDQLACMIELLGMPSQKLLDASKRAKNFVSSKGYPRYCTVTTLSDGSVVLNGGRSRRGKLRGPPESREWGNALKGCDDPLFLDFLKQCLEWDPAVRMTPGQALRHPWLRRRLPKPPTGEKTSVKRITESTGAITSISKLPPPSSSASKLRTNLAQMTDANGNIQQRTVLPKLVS
Kind of series: biochemical. The class given is cell-based, Sf9.

The target of series [6] is T3, Dual specificity tyrosine-phosphorylation-regulated kinase 3 (Homo sapiens, UniProt O43781).
T3 sequence (O43781 whole entry): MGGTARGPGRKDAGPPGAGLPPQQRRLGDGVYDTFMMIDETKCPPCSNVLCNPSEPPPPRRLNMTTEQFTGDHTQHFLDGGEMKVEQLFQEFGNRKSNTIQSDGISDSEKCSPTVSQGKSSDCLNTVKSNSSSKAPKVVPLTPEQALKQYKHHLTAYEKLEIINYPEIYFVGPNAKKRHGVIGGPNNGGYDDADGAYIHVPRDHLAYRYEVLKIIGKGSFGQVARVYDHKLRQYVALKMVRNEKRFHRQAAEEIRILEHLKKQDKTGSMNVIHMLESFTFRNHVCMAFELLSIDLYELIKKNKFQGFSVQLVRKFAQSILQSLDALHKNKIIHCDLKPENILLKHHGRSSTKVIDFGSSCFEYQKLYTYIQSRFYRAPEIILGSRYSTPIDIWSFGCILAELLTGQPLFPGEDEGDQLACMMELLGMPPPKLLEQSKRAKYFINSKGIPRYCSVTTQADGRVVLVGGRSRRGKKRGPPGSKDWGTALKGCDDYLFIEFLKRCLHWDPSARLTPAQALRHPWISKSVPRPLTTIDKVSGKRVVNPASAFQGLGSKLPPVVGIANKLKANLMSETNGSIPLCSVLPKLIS
The series can be described thus: biochemical. The class given is cell-based, Sf9.

Series [7] addresses T4, Dual specificity tyrosine-phosphorylation-regulated kinase 4 (Homo sapiens, UniProt Q9NR20).
T4 sequence (Q9NR20 whole entry): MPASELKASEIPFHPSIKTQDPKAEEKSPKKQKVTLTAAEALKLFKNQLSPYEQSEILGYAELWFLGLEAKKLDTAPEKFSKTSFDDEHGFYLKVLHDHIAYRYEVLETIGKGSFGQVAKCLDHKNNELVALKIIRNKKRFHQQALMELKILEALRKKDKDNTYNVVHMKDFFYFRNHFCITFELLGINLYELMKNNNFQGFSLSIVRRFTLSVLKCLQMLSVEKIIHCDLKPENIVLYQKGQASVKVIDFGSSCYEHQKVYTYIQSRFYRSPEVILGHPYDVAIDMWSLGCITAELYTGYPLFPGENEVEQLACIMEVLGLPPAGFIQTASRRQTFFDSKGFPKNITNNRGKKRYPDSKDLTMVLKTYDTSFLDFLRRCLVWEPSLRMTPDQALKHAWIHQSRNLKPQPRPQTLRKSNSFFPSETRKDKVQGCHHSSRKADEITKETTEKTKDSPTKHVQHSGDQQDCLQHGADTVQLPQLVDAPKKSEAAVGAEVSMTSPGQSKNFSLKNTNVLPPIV
Kind of series: biochemical. The class given is cell-based, Sf9.

For series [8], the target named is T5, Glycogen synthase kinase-3 beta (Homo sapiens, UniProt P49841). Kind of series: biochemical. In kind it is cell-based, Sf9.
Series [9] addresses T1, Dual specificity protein kinase CLK1. Kind of series: biochemical. In kind it is cell-based, Sf9. The conditions noted are these: read-out: IC50.
Series [10] shares this target.
Series [11] deals with T5, Glycogen synthase kinase-3 beta.
The next series can be described thus: in vitro. The conditions noted are these: mouse, ht-22.
The target in series [12] is Dual specificity protein kinase CLK2 (Homo sapiens, UniProt P49760). The series can be described thus: biochemical.
In series [13] the target is Dual specificity protein kinase CLK4 (Homo sapiens, UniProt Q9HAZ1). Kind of series: biochemical.
Dual specificity protein kinase CLK4, sequence (Q9HAZ1 whole entry): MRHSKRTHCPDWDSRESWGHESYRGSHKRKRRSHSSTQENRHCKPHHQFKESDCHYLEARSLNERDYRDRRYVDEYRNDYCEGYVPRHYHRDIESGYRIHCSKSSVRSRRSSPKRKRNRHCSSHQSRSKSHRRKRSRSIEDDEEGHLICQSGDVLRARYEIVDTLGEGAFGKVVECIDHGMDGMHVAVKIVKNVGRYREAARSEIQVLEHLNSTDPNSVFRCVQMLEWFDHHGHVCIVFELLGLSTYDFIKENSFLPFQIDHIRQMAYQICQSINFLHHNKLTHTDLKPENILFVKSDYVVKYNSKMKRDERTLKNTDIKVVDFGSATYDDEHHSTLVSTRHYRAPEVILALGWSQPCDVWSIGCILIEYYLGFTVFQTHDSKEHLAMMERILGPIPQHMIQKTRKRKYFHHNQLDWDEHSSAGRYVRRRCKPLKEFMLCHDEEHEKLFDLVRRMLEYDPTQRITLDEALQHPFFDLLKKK

Cyclin-dependent kinase 5/CDK5 activator 1, sequence (Q00535 whole entry, canonical isoform): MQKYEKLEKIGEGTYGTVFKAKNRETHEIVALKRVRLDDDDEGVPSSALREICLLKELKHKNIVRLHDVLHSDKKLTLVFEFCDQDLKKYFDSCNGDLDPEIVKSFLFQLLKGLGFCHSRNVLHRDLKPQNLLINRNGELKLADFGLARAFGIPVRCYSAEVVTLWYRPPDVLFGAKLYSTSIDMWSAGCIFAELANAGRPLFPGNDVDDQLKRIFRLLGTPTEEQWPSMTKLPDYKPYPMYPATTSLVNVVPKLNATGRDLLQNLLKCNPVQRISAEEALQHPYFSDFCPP
Cyclin-dependent kinase 5/CDK5 activator 1, sequence (Q15078 whole entry, further chain, canonical isoform): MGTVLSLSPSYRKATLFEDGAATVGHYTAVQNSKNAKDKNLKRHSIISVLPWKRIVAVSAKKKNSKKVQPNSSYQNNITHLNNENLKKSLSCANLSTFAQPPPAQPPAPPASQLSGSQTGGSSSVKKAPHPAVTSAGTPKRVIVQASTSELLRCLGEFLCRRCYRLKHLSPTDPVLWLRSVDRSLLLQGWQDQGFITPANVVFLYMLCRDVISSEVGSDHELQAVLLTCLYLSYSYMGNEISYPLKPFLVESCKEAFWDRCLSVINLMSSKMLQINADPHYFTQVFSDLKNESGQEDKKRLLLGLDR
T5 sequence (P49841 whole entry): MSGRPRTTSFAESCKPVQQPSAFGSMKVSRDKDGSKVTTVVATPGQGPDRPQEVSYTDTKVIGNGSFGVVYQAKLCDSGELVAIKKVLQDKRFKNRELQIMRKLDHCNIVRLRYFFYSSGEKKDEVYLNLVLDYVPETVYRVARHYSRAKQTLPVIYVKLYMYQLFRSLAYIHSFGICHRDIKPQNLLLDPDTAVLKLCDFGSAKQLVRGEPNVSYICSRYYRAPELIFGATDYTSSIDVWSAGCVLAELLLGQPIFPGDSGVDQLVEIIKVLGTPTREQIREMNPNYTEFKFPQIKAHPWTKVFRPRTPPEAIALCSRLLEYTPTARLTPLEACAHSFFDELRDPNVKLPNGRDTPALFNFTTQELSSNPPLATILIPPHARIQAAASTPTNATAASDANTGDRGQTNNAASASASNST
Dual specificity protein kinase CLK3, sequence (P49761 whole entry): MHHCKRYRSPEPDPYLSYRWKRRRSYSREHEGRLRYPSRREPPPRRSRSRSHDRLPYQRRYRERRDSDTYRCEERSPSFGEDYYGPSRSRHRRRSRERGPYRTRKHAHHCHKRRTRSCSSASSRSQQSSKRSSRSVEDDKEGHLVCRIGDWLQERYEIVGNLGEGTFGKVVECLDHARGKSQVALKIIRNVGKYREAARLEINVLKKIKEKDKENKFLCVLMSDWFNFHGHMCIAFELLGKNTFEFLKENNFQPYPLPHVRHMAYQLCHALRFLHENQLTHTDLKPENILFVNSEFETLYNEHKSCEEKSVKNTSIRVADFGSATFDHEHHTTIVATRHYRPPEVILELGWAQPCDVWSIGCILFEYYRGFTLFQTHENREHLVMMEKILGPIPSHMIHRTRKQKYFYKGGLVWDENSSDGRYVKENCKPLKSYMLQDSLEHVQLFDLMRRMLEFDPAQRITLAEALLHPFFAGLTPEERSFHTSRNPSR
Dual specificity protein kinase CLK2, sequence (P49760 whole entry): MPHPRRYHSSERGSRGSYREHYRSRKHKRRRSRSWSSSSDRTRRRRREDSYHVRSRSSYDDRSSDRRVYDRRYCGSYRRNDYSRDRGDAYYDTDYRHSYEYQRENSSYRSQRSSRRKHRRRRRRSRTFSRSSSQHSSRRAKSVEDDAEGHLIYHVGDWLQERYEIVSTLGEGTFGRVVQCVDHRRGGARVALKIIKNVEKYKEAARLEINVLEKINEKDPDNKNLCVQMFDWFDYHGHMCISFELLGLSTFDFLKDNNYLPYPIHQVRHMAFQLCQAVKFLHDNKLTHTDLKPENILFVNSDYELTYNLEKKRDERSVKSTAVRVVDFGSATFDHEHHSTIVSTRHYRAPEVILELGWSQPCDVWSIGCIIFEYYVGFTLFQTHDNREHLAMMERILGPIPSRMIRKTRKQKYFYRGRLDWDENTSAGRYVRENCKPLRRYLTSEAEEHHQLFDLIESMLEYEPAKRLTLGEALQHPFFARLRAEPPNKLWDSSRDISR
Casein kinase I isoform epsilon, sequence (P49674 whole entry, canonical isoform): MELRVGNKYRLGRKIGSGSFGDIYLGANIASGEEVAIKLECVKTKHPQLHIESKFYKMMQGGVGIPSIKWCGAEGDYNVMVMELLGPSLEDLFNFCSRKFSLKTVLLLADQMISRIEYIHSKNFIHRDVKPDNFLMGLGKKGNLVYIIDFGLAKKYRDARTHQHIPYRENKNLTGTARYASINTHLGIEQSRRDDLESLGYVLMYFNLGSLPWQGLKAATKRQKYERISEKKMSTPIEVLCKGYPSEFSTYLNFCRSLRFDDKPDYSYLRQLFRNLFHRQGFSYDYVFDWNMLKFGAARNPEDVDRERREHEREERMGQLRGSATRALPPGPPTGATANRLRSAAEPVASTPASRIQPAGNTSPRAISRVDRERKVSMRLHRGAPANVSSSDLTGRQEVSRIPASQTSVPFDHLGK
T1 sequence (P49759 whole entry): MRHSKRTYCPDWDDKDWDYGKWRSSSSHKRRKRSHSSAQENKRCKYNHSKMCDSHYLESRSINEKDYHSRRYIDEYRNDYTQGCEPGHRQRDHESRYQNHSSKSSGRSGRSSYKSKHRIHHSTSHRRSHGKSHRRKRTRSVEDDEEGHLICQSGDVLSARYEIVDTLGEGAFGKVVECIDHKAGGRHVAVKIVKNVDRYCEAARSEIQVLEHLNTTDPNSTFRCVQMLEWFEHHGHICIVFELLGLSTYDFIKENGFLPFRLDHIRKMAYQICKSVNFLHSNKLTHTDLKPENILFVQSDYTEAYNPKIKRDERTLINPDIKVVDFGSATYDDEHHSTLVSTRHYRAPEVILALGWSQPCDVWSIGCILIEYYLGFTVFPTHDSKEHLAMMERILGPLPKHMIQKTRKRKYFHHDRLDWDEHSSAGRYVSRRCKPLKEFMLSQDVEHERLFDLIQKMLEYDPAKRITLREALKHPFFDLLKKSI

For the molecule `CCNc1cc(Nc2ccc(C(=O)N3CCC(N4CCOCC4)CC3)cc2OC)nc2[nH]cc(C(F)(F)F)c12`, the IC50 in series [1] was over 10000 nM; in series [2], 7990 nM; in [3] it was 71.3 nM; in series [4], 2050 nM; in [5] it was over 10000 nM; in [6], 7150 nM. Besides, the IC50 in series [7] was over 10000 nM; in series [8], over 10000 nM; in series [9], 92.9 nM; in series [12] it was 40.5 nM; in [13], 21.1 nM. Besides, the results for the Kd in series [10] and in [11] were 1.39 nM and over 10000 nM, respectively. In addition, in “in vitro”, the midpoint of inhibition, the IC50 at 48 h, lay at 19900 nM.

In the case of `COc1ccc2c3ccnc(Cl)c3n(CC#N)c2c1`, the IC50 in [1] is over 10000 nM; in series [2], over 10000 nM; in series [3], 157 nM; in series [4], 4920 nM; in series [5], 813 nM; in series [6] it was 1220 nM. Further, the IC50 was 8370 nM in series [7]; over 10000 nM in series [8]; 88.3 nM in [9]; 630 nM in series [12]; 23.8 nM in series [13]. Moreover, the Kd came out at 8.7 nM in series [10] and 2580 nM in [11]. In addition, the IC50 at 48 h in “in vitro” was found to be 97000 nM.

In the case of `O=C1NC(=Nc2c(Cl)cccc2Cl)S/C1=C\c1ccc2nccnc2c1`, the IC50 was over 10000 nM in series [1]; 1770 nM in [2]; 21.1 nM in [3]; 92.6 nM in series [4]; 15.6 nM in [5]; 22.7 nM in series [6]. The 50% inhibitory concentration (IC50) in series [7] stood at 108 nM; in [8], 3090 nM; in series [9] it was 13.6 nM; in series [12] it was 95.3 nM; in series [13] it was 14 nM. The Kd amounted to 0.395 nM in series [10] and 939 nM in [11]. The molecule also registered an IC50 at 48 h in the series “in vitro” of 27800 nM.

In the case of `COC(=N)c1nc2ccc3ncnc(Nc4ccc(OC)cc4F)c3c2s1`, the IC50 is over 10000 nM in series [1]; over 10000 nM in [2]; 1210 nM in series [3]; over 10000 nM in series [4]; 323 nM in [5]; over 10000 nM in [6]. The IC50 in [7] was over 10000 nM; in [8] it was 5330 nM; in [9], 111 nM; in [12] it was over 10000 nM; in [13], 79.6 nM. Moreover, the Kd was determined as 7.63 nM in series [10] and 160 nM in series [11]. In addition, in the series “in vitro”, the IC50 at 48 h was determined as 21600 nM.

Take `COc1cc(/C=C/C(=O)CC(=O)/C=C/c2ccc(O)c(OC)c2)ccc1O` [CURCUMIN]: the concentration for half-maximal inhibition (IC50) was over 10000 nM in series [1]; over 10000 nM in series [2]; over 10000 nM in series [3]; over 10000 nM in series [4]; 1060 nM in series [5]; 4260 nM in series [6]. For the same molecule, the IC50 in [7] was over 10000 nM; in [8] it was over 10000 nM; in series [9], 4920 nM; in series [12], over 10000 nM; in series [13], 9750 nM. For the same molecule, the Kd is over 1000 nM in series [10] and over 10000 nM in series [11]. In “in vitro”, this molecule had an IC50 at 48 h of 52400 nM.

Consider `O=C(O)c1nc2ccccc2c2[nH]c3c(I)cccc3c12`, for which the 50% inhibitory concentration (IC50) was over 10000 nM in series [2]; 3610 nM in [3]; over 10000 nM in series [4]; over 10000 nM in series [7]; over 10000 nM in series [8]; 14.6 nM in series [9]. For the same molecule, the IC50 was found to be 5140 nM in series [12] and 316 nM in [13]. In addition, the values for the Kd in series [10] and in [11] were 6.22 nM and 475 nM, respectively. In “in vitro”, the half-maximal inhibitory concentration (IC50) at 48 h was over 100000 nM.

For `Oc1ccc(-c2n[nH]c3ncc(-c4ccc(O)c(O)c4)cc23)cc1`, the half-maximal inhibitory concentration (IC50) in series [1] came to 38.4 nM; in series [2], 38.9 nM; in series [3], 10.4 nM; in series [4], 207 nM; in series [5], 32.9 nM; in series [6], 71.9 nM. In addition, the IC50 turned out to be 26.8 nM in [7]; 159 nM in [8]; 37.9 nM in [9]; 14.3 nM in series [12]; 4.7 nM in series [13]. In addition, the Kd in [10] was 1.31 nM; in [11], 260 nM. In addition, the IC50 at 48 h in the series “in vitro” stood at 5500 nM.

`c1ccc(-c2ccc3[nH]ncc3c2)cc1`: the IC50 was 1800 nM in [1]; over 10000 nM in series [2]; 39.6 nM in series [3]; 1690 nM in series [4]; 1250 nM in series [5]; 5850 nM in series [6]. Moreover, the IC50 was over 10000 nM in [7]; 7510 nM in series [8]; 24.2 nM in [9]; 211 nM in series [12]; 15 nM in [13]. For the same molecule, the Kd came out at 1.63 nM in series [10] and 1980 nM in series [11]. Also, in the series “in vitro”, inhibition was half-maximal at 42500 nM (IC50 at 48 h).

As for `Cc1ccc([N+](=O)[O-])cc1S(=O)(=O)N(C)/N=C/c1cnc2ccc(Br)cn12`, the IC50 in [1] came to 24.5 nM; in series [2], 405 nM; in [3], 18.8 nM; in series [4] it was 11.9 nM; in [5], 118 nM; in [6] it was 10.4 nM. Further, the IC50 was found to be 2590 nM in series [7]; 17.6 nM in series [8]; 30.8 nM in series [9]; 1.1 nM in [12]; 6.9 nM in [13]. Moreover, the dissociation constant Kd in series [10] was 0.056 nM; in series [11] it was 3.93 nM. The molecule further yielded an IC50 at 48 h in “in vitro” of 160 nM.

For the molecule `COC1=CC2C(=O)NC3=Cc4ccc(OC)cc4C(=C1OC)C32` (stereo unspecified), the IC50 in [1] is over 10000 nM; in series [2] it was over 10000 nM; in series [3] it was 11.4 nM; in series [4], 640 nM; in series [5] it was 26.8 nM; in series [6], 23.5 nM. In addition, the IC50 stood at 3690 nM in [7]; 2200 nM in series [8]; 31.8 nM in [9]; 33.3 nM in [12]; 6.7 nM in series [13]. Besides, the Kd stood at 0.58 nM in [10] and 396 nM in [11]. Moreover, half-maximal inhibition in the series “in vitro” (IC50 at 48 h) was put at 20900 nM.

As to `Oc1ccc(-c2cnc3[nH]cc(-c4ccc(F)cc4)c3c2)cc1O`, the IC50 was over 10000 nM in [1]; over 10000 nM in series [2]; 570 nM in [3]; over 10000 nM in series [4]; 3350 nM in series [5]; over 10000 nM in series [6]. Further, the IC50 in series [7] is over 10000 nM; in series [8], over 10000 nM; in [9], 180 nM; in [12] it was 1990 nM; in series [13], 890 nM. Besides, the Kd is 70.8 nM in [10] and over 10000 nM in [11]. This molecule had an IC50 at 48 h in “in vitro” of 9000 nM.

Values taken from ChEMBL document CHEMBL5247649, “Comparative Efficacy and Selectivity of Pharmacological Inhibitors of DYRK and CLK Protein Kinases” (J Med Chem, 2023).
